Reference: patent US20250255847A1, “[…]s: Novel Drugs for Triple Negative Breast Cancer” (SIMMARON RSEARCH INC, priority 2024, published 2025)

System: MDA-MB-468 TNBC cells
Assay: Annexin V / propidium iodide dual labeling in MDA-MB-468 cells
Assay type: cell-based, human
Conditions: 24 hrs; for membrane labeling of Annexin V and nuclear staining of PI: increasing doses
Method: FIG. 11 illustrates an embodiment of the present invention and illustrates SIM-1 and SIM-2 induced apoptosis in MDA-MB-468 TNBC cells, but not HMEC control cells. MDA-MB-468 cells were treated with increasing doses of (A) SIM-1 and (B) SIM-2 for 48 hrs followed by lactate dehydrogenase (LDH) release assay in the supernatants. The result was offset with cell-bound LDH and presented as a percent of DMSO control as discussed under method section. Half-maximal cytotoxicity or CT50 analyses were performed plotting maximum response as an index of increasing doses of (C) SIM-1 and (D) SIM-2. AnnexinV (green) and propidium iodide (red) dual-labeling were performed to evaluate apoptotic response in MDA-MB-468 cells once treated with increasing doses of (E) SIM-1 and (F) SIM-2 for 24 hrs. Nuclei were stained with DAPI. TUNEL assay was performed in MDA-MB-468 cells after treatment with 25 nM of (G) SIM-1. Brown-colored TUNEL bodies were visualized at cresyl violet-stained blue nuclei. (H) The number of TUNEL bodies were counted as a percent of 100 cresyl violet-stained blue cells. Ten independent images were counted for the quantification study. Similarly, SIM-2 was assessed for (I) TUNEL and (J) subsequent quantification analyses. One-way ANOVA was performed to test the significance of mean between groups at **p<0.01 and ****p<0.0001. (K) LDH release assay was performed in non-tumor origin human mammary epithelial cells (HMEC) once treated with increasing doses of SIM-1 and SIM-2 for 48 hrs. Ns=no significance. (L) Annexin V (green) and propidium iodide (red) staining was performed in 25 nM SIM-1- and SIM-2-treated HMEC cells. Nuclei were stained with DAPI. Results are confirmed after three different experiments.
Annexin V/PI Dual Staining Protocol. Annexin V/PI Dual Staining was performed as per manufacturer's instruction (Cat #: 2752665; Vendor: Thermo Fisher Scientific). Chamber slides of MDA-MB-468 cells in serum-free media were treated with SIMPYRA-1 and SIMPYRA-2 at doses of 2 nM, 5 nM, 10 nM, […] 50 nM for 24 hours at 37° C. Each well was washed with 1×PBS, then treated with 1× annexin-binding buffer, 100 ug/mL PI solution, and Annexin V solution. Chamber slides were incubated in the dark at room temperature for 2 hours. Each well was washed twice with 1×PBS and once with 1:500 dilution of DAPI in 1×PBS. Cells were imaged using CaptaVision+™ Software.
This example provides a representative experiment that studies if SIM-1 and SIM-2 promoted the death of TNBC cells. […] During apoptosis, phosphatidyl serine of the plasma membrane flips from the inner to the outer membrane which can be detected by Annexin V labeling, whereas PI stains the nucleus of a cell with compromised integrity of the plasma membrane. […]

Row | Structure (SMILES) | concentration of maximum Annexin V / PI labeling [nM] | membrane labeling of Annexin V and nuclear staining of PI
1 | CCOC(=O)c1c(NC(C)=O)sc2c(Cl)c(/C=N/O)ccc12 [SIM-2, ethyl 2-acetamido-7-chloro-6-(hydroxyiminomethyl)-1-benzothiophene-3-carboxylate] | 25 | dose-dependently increased
2 | O=C(O)CCC(=O)NCc1csc2ccc(Cl)cc12 [SIM-1, 4-[(5-chloro-1-benzothiophen-3-yl)methylamino]-4-oxobutanoic acid] | 25 | dose-dependently increased
